Values after ≈ are worked out from the molar mass of the structure shown. Read-outs that look alike come from different tables or passages of the source.
Legend:
G. swidsinskii (Gv_23) = test: MIC and MBC microbroth dilution; format: cell-based, Gardnerella swidsinskii; settings: for MIC / MBC: Gardnerella swidsinskii; for MIC: 48 h
Method: (§1) One of the main deficiencies in the treatment of BV is the high rate of recurrence in many women, which leads to repeated administration of antibiotics and concomitant destabilization of the microbiome and other side effects. The minimal inhibitory concentration (MIC) and minimal bactericidal concentration (MBC) on Gardnerella cells of the strains also used for the endolysin activity assays were then measured using the method described in Reference Example 6 and 7. […] Essentially, Gardnerella suspensions at 2.5×10^7 CFU/ml were incubated with the concentration of antibiotics as indicated and incubated for 48 h at 37° C. under anaerobic conditions. […] OD(610) was measured at the beginning and the end of the experiment. At the end of the experiment, 2 ul of each reaction mix was spotted on agar to determine the MBC.
(§2) The conditions under which MIC and MBC were measured are more rigorous than the standard.
(§3) Example 7—Activity assays of a representative (H2B10) of domain swapped endolysins on the growth in suspension of different Gardnerella strains. […] The conditions under which MBC was measured are more rigorous than the standard. […] In general, it is known, that antibiotics only insufficiently eradicate the Gardnerella biofilm, a hallmark of BV, which is one suspected reason for the reported very high recurrence rate of BV. Despite leaving residual viable biofilm, antibiotics wipe parts of the beneficial organisms of the vaginal microbiome which then opens an ecological niche for other pathogens, e.g. fungi.
(§4) Bacteria were plated from cryo stock on BD Choc Agar plates (Gardnerella) and incubated at 37° C. for 48 h under anaerobic conditions. Colonies were scraped from the plate, resuspended in Hardy Broth or NYC-III-HS-pH 5.0, and the suspension adjusted to OD (610 or 620 nm as indicated) 0.05. It has to be noted that two Tecan Microplate readers, having respectively a 610 nm or 620 nm filter, have been used interchangeably in the experiments. Although it doesn't make any difference for the experiments, the exact wavelength used is specified in each example. Antibiotics were prepared as 20× stocks for each of the required final concentrations. 95 μl of cell suspension was mixed with 5 μl antibiotics dilution in a 384-well plate. OD (610-620 as indicated) at the start of the reaction was measured, then the plate was incubated at 37° C. for 48 h under anaerobic conditions. After that, the OD (610-620 as indicated) was measured again for MIC determination, where MIC was defined as the lowest concentration of antibiotic where the OD (610-620 as indicated) was not above the level measured at the beginning of the experiment. After measuring OD, 2 μl of each well were spotted on a NYC-III+HS Agar plate. The plates were then incubated for further 48 h at 37° C. under anaerobic conditions. After incubation, cell growth on each spot was evaluated, and the MBC defined as the lowest concentration of antibiotics where no bacteria grew on the plate. The experiments were conducted in triplicate for each condition. In the second round of MIC and MBC experiments with antibiotics the Gardnerella cell suspension was adjusted to the McFarland standard 0.5 (approximately OD (610) 0.07) and then diluted 1:75 according to the CLSI (Clinical and Laboratory Standards Institute) standards. Antibiotics were prepared according to the CLSI standards and 50 μl of cell suspension was mixed in a 96-well plate with 50 μl antibiotics. Otherwise the MIC and MBC was determined as described above.

[1] = system: all tested Gardnerella strains; test: MIC and MBC microbroth dilution, stated over all tested strains; format: cell-based; settings: for MIC: Gardnerella
Method: as §1, §2, §3
Bacteria were plated from cryo stock on BD Choc Agar plates (Gardnerella) and incubated at 37° C. for 48 h under anaerobic conditions. Colonies were scraped from the plate, resuspended in Hardy Broth or NYC-III-HS-pH 5.0, and the suspension adjusted to OD (610 or 620 nm as indicated) 0.05. It has to be noted that two Tecan Microplate readers, having respectively a 610 nm or 620 nm filter, have been used interchangeably in the experiments. Although it doesn't make any difference for the experiments, the exact wavelength used is specified in each example. Antibiotics were prepared as 20× stocks for each of the required final concentrations. […] OD (610-620 as indicated) at the start of the reaction was measured, then the plate was incubated at 37° C. for 48 h under anaerobic conditions. After that, the OD (610-620 as indicated) was measured again for MIC determination, where MIC was defined as the lowest concentration of antibiotic where the OD (610-620 as indicated) was not above the level measured at the beginning of the experiment. […] After incubation, cell growth on each spot was evaluated, and the MBC defined as the lowest concentration of antibiotics where no bacteria grew on the plate.

G. vaginalis (Gv_9) = test: MIC and MBC microbroth dilution; format: cell-based, Gardnerella vaginalis; settings: for MIC / MBC: Gardnerella vaginalis; for MIC: 48 h
Method: as §1, §2, §3, §4

[2] = first round: […]10^7 CFU/ml, Hardy broth, 384-well, 48 h 37° C. anaerobic
[3] = second round: 1×10^5-1×10^6 CFU/ml (CLSI), NYC-III broth, 96-well, 48 h anaerobic
[4] = second round: 1×10^5-1×10^6 CFU/ml (CLSI), NYC-III broth, 96-well

Cc1ncc([N+](=O)[O-])n1CCO [Metronidazole]
MIC (G. swidsinskii (Gv_23); [2]): > 128 µg/mL | MIC (G. swidsinskii (Gv_23); [3]): 32 µg/mL (≈ 187 µM) | MBC (G. swidsinskii (Gv_23); [4]): > 128 µg/mL | MBC (G. swidsinskii (Gv_23); first round: 2.5×10^7 CFU/ml, minimal concentration fully eradicating the suspension): > 128 µg/mL | resistance class of MIC, Metronidazole (G. swidsinskii (Gv_23); first round): R (>=32 μg/mi for Metronidazole) | resistance class given with MBC, Metronidazole (G. swidsinskii (Gv_23); second round): R (>=32 μg/mi for Metronidazole) | resistance class printed with MIC, Metronidazole (G. swidsinskii (Gv_23); second round): R (>=32 μg/mi for Metronidazole) | MIC ([1]; 48 h, first round: […]10^7 CFU/ml, 48 h anaerobic (FIG. 14), read-out: MIC over all Gardnerella strains): 64 to 128 µg/mL (≈ 374 to 748 µM) | MIC ([1]; second round: 1×10^5-1×10^6 CFU/ml (FIG. 15), read-out: MIC over all tested Gardnerella strains): 8 to 128 µg/mL (≈ 46.7 to 748 µM) | susceptibility of the Gardnerella strains, in words ([1]; MIC microbroth dilution): resistant | MIC (G. vaginalis (Gv_9); [2]): 128 µg/mL (≈ 748 µM) | MIC (G. vaginalis (Gv_9); [3]): 8 µg/mL (≈ 46.7 µM) | MBC (G. vaginalis (Gv_9); first round: […]10^7 CFU/ml, minimal concentration fully eradicating the suspension): > 128 µg/mL | MBC (G. vaginalis (Gv_9); [4]): 16 µg/mL (≈ 93.5 µM) | resistance class of MIC, Metronidazole (G. vaginalis (Gv_9); first round): R (>=32 μg/mi for Metronidazole) | resistance class given with MBC, Metronidazole (G. vaginalis (Gv_9); second round): R (>=32 μg/mi for Metronidazole)

Reference: patent US20220315908A1, “NOVEL GARDNERELLA ENDOLYSINS AND USES THEREOF” (priority 2019, published 2022)
